The target of one assay is human mTOR (Homo sapiens (Human), UniProt P42345). Kind of assay: mTOR kinase assay (TR-FRET, for comparative purposes). It counts as biochemical. To be noted: mean inhibition at 1 μM test compound; 40 μM ATP.
Another assay concerns the target human FGFR-1 (Homo sapiens, UniProt P11362). Put plainly: FGFR-1 high ATP kinase assay (TR-FRET). The class given is biochemical. To be noted: 2 mM ATP; 15 min pre-incubation with enzyme; compounds of the invention.
The next assay deals with human FGFR-3 (Homo sapiens (Human), UniProt P22607). Put plainly: FGFR-3 kinase assay (TR-FRET). It counts as biochemical. To be noted: 10 μM ATP, 15 min pre-incubation with enzyme, compounds of the invention. Background: Time-resolved FRET reads energy transfer from a long-lived donor to a nearby acceptor.
Assay [1] relates to Human umbilical vein endothelial cells (HUVEC). Put plainly: Inhibition of growth factor-mediated cell proliferation (hFGF-2, HUVEC). To be noted: 72 h, read-out: hFGF-2 mediated HUVEC proliferation, IC50 [nM]. The class given is cell-based.

Counter-ions that a name gives are not always drawn.

Chain of human FGFR-3 (P22607 397-806): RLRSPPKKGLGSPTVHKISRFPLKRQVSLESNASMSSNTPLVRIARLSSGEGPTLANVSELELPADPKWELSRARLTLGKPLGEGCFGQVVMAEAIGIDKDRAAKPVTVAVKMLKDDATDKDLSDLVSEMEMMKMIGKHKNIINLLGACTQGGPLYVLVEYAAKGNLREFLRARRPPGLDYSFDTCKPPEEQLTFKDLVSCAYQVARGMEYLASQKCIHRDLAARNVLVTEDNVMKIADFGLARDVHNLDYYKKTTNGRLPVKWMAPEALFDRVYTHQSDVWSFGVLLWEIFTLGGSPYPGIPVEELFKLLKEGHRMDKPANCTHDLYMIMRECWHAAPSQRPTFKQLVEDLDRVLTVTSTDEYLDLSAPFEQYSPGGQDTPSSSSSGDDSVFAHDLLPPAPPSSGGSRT
Chain of human FGFR-1 (P11362 22-822 limits assumed): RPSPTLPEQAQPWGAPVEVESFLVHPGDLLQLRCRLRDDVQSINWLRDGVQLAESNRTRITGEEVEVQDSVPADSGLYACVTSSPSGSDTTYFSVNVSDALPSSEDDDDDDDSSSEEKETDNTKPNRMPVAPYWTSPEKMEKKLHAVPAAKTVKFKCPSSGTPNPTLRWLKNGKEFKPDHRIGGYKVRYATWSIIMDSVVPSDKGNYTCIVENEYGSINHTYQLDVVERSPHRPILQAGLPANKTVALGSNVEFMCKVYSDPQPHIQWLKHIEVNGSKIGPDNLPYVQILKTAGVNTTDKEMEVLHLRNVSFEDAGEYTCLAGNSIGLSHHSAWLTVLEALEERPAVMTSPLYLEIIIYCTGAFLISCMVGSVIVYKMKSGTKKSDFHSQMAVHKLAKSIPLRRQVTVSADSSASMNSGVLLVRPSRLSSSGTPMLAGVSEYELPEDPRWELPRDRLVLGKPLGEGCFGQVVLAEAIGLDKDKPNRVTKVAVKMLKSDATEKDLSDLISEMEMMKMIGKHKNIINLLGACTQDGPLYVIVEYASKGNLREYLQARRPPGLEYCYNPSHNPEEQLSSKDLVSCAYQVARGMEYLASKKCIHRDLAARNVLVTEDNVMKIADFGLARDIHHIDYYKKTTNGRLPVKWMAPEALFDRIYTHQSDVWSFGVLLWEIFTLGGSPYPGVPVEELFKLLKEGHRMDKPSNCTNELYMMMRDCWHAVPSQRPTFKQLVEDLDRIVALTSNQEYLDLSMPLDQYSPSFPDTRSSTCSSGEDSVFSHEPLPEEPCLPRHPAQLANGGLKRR
Chain of human mTOR (P42345 1360-2549): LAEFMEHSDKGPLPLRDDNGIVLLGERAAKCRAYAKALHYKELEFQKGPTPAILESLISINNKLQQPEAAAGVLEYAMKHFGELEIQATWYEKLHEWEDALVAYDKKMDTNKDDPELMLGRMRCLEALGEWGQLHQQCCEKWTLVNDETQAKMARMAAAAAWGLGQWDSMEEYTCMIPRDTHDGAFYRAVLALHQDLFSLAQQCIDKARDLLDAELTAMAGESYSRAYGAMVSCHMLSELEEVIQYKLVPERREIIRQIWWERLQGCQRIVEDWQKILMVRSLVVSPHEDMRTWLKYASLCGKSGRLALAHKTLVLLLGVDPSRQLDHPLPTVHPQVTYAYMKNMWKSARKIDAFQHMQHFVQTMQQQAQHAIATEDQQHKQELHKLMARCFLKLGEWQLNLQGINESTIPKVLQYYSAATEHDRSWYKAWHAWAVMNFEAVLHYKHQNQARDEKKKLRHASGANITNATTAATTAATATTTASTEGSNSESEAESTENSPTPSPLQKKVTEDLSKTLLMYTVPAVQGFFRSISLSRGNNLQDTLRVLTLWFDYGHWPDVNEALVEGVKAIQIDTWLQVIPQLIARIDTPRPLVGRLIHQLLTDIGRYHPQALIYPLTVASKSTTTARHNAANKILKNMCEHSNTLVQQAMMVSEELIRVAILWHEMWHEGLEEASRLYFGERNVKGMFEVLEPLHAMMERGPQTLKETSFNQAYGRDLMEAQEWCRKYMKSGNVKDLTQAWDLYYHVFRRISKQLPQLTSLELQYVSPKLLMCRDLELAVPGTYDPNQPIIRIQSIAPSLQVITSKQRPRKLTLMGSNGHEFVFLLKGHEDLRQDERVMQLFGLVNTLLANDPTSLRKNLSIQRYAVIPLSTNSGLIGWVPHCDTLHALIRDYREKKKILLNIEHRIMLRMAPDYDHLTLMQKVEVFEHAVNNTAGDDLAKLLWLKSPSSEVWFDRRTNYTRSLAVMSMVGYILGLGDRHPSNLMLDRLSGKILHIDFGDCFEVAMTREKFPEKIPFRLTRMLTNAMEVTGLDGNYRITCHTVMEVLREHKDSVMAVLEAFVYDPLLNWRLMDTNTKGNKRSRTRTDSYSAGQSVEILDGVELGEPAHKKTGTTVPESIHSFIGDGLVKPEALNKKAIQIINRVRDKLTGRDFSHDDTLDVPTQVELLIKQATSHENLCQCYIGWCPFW

With `COCCOCc1c(-c2cc3cc(C)cc(OC)c3s2)c2c(N)ncnn2c1CN1CCNCC1` [Example 28, 6-[(2-Methoxyethoxy)methyl]-5-(7-methoxy-5-methyl-1-benzothiophen-2-yl)-7-(piperazin-1-ylmethyl)pyrrolo[2,1-f][1,2,4]triazin-4-amine formiate], at human mTOR, the “mTOR inhibition @ 1 μM” value is listed as “no inhib. effect detect”. Also, the IC50 at human FGFR-1 stood at 2.1 nM; against human FGFR-3 it was 9.7 nM. Turning to `COc1cc(C)cc2cc(-c3c(CN4CCCC4)c(CN4CCNCC4)n4ncnc(N)c34)sc12` [Example 45, 5-(7-Methoxy-5-methyl-1-benzothiophen-2-yl)-7-(piperazin-1-ylmethyl)-6-(pyrrolidin-1-ylmethyl)pyrrolo[2,1-f][1,2,4]triazin-4-amine trihydrochloride], the IC50 in assay [1] stood at 171 nM. With `CCOCc1c(-c2cc3cc(C)cc(OC)c3s2)c2c(N)ncnn2c1C(=O)N1CCC(O)CC1` [Example 121], the “mTOR inhibition @ 1 μM” value at human mTOR is reported as “no inhib. effect detect”. For the same molecule, the IC50 at human FGFR-1 was 8.2 nM; on human FGFR-3 it was 24.6 nM. In the case of `COCc1c(-c2cc3cc(C)cc(OC)c3s2)c2c(N)ncnn2c1CN1CCN(C(C)=O)CC1` [Example 16, 1-(4-{[4-Amino-6-(methoxymethyl)-5-(7-methoxy-5-methyl-1-benzothiophen-2-yl)pyrrolo[2,1-f]-[1,2,4]triazin-7-yl]methyl}piperazin-1-yl)ethanone dihydrochloride], the IC50 in assay [1] turned out to be 117 nM. On the same count and under the same terms, for `COc1cc(C)cc2cc(-c3c(CNCCO)c(CN4CCNCC4)n4ncnc(N)c34)sc12` [Example 39, 2-({[4-Amino-5-(7-methoxy-5-methyl-1-benzothiophen-2-yl)-7-(piperazin-1-ylmethyl)pyrrolo-[2,1-f][1,2,4]triazin-6-yl]methyl}amino)ethanol trihydrochloride] the value was 365 nM. On to `COc1cc(C)cc2cc(-c3c(CN4CCC(O)CC4)c(CN4CCNCC4)n4ncnc(N)c34)sc12` [Example 41, 1-{[4-Amino-5-(7-methoxy-5-methyl-1-benzothiophen-2-yl)-7-(piperazin-1-ylmethyl)pyrrolo-[2,1-f][1,2,4]triazin-6-yl]methyl}piperidin-4-ol trihydrochloride], for which, at human mTOR, the “mTOR inhibition @ 1 μM” value was “no inhib. effect detect”. Further, the IC50 was 2.8 nM on human FGFR-1 and 7.2 nM against human FGFR-3.

`CCOCc1c(-c2cc3cc(C)cc(OC)c3s2)c2c(N)ncnn2c1C(=O)N1CCS(=O)(=O)C1` [Example 119]: on human mTOR, the “mTOR inhibition @ 1 μM” value is recorded as “no inhib. effect detect”. The values for the IC50 against human FGFR-1 and against human FGFR-3 were 9 nM and 4.5 nM, respectively. With `CCOCc1c(-c2cc3cc(C)cc(OC)c3s2)c2c(N)ncnn2c1CN1CCN(C(C)=O)CC1` [Example 11, 1-(4-{[4-Amino-6-(ethoxymethyl)-5-(7-methoxy-5-methyl-1-benzothiophen-2-yl)pyrrolo[2,1-f]-[1,2,4]triazin-7-yl]methyl}piperazin-1-yl)ethanone dihydrochloride], the figures for the IC50 (in assay [1]; against human FGFR-3 (dihydrochloride)) were 150 nM and 13 nM, respectively. `CCNCc1c(-c2cc3cc(C)cc(OC)c3s2)c2c(N)ncnn2c1CN1CCNCC1` [Example 38, 6-[(Ethylamino)methyl]-5-(7-methoxy-5-methyl-1-benzothiophen-2-yl)-7-(piperazin-1-ylmethyl)pyrrolo[2,1-f][1,2,4]triazin-4-amine trihydrochloride]: in assay [1], the IC50 was determined as 213 nM. Same read-out and setting: for `COc1cc(C)cc2cc(-c3c(CNC4CC4)c(CN4CCNCC4)n4ncnc(N)c34)sc12` [Example 46, 6-[(Cyclopropylamino)methyl]-5-(7-methoxy-5-methyl-1-benzothiophen-2-yl)-7-(piperazin-1-ylmethyl)pyrrolo[2,1-f][1,2,4]triazin-4-amine trihydrochloride] the value was 84.5 nM.

Regarding `COc1cc(C)cc2cc(-c3c(CNC(C)=O)c(CN4CCNCC4)n4ncnc(N)c34)sc12` [Example 64, N-{[4-Amino-5-(7-methoxy-5-methyl-1-benzothiophen-2-yl)-7-(piperazin-1-ylmethyl)pyrrolo-[2,1-f][1,2,4]triazin-6-yl]methyl}acetamide dihydrochloride], in assay [1], the IC50 came to 4.5 nM. Consider `CCOCc1c(-c2cc3cc(C)cc(OC)c3s2)c2c(N)ncnn2c1C(=O)N1CCNC(=O)C1` [Example 107, 4-{[4-Amino-6-(ethoxymethyl)-5-(7-methoxy-5-methyl-1-benzothiophen-2-yl)pyrrolo[2,1-f]-[1,2,4]triazin-7-yl]carbonyl}piperazin-2-one], for which the “mTOR inhibition @ 1 μM” value on human mTOR is “no inhib. effect detect”. Further, the values for the IC50 on human FGFR-1 and at human FGFR-3 were 9.4 nM and 17.4 nM, respectively. With `COc1cc(C)cc2cc(-c3c(CNCC(=O)O)c(CN4CCNCC4)n4ncnc(N)c34)sc12` [Example 48, N-{[4-Amino-5-(7-methoxy-5-methyl-1-benzothiophen-2-yl)-7-(piperazin-1-ylmethyl)pyrrolo-[2,1-f][1,2,4]triazin-6-yl]methyl}glycine trihydrochloride], the results for the IC50 (in assay [1]; against human FGFR-3) were 360 nM and 45.4 nM, respectively. In the case of `COCc1c(-c2cc3cc(C)cc(OC)c3s2)c2c(N)ncnn2c1CN1CC[C@](C)(N)C1` [Example 14, 7-{[(3S)-3-Amino-3-methylpyrrolidin-1-yl]methyl}-6-(methoxymethyl)-5-(7-methoxy-5-methyl-1-benzothiophen-2-yl)pyrrolo[2,1-f][1,2,4]triazin-4-amine trihydrochloride], the results for the IC50 (in assay [1]; on human FGFR-1) were 25 nM and 1.4 nM, respectively.

The record behind these values is patent US9206184B2, “Disubstituted benzothienyl-pyrrolotriazines and uses thereof” (BAYER INTELLECTUAL PROPERTY GmbH, priority 2011, dated 2015).
